ChEMBL document CHEMBL1201862, “PubChem BioAssay data set” (2004)
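How tested: cells in 96-well plates exposed to compound for 48 hours at five concentrations. At the GI50, growth is halved.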 Activity calls are given as the source filed them. No stated cut-off is given here; in the data, active = GI50 up to about 1.1 µM and inactive = higher.

Legend:
Assay in all cases: NCI-60 cell line screen, 48 h
786-0 = system: 786-0
A498 = system: A498
A549 = system: A549
ACHN = system: ACHN
CAKI-1 = system: CAKI-1
CCRF-CEM = system: CCRF-CEM
COLO 205 = system: COLO 205
DU-145 = system: DU-145
EKVX = system: EKVX
HCC 2998 = system: HCC 2998
HCT-116 = system: HCT-116
HCT-15 = system: HCT-15
HL-60 = system: HL-60
HOP-62 = system: HOP-62
HOP-92 = system: HOP-92
HT-29 = system: HT-29
Hs-578T = system: Hs-578T
IGROV-1 = system: IGROV-1
K562 = system: K562
KM12 = system: KM12
LOX IMVI = system: LOX IMVI
M14 = system: M14
MCF7 = system: MCF7
MDA-MB-231 = system: MDA-MB-231
MDA-MB-435 = system: MDA-MB-435
MDA-N = system: MDA-N
MOLT-4 = system: MOLT-4
Malme-3M = system: Malme-3M
NCI-H226 = system: NCI-H226
NCI-H23 = system: NCI-H23
NCI-H460 = system: NCI-H460
NCI-H522 = system: NCI-H522
NCI/ADR-RES = system: NCI/ADR-RES
OVCAR-3 = system: OVCAR-3
OVCAR-4 = system: OVCAR-4
OVCAR-5 = system: OVCAR-5
OVCAR-8 = system: OVCAR-8
PC-3 = system: PC-3
RPMI-8226 = system: RPMI-8226
RXF 393 = system: RXF 393
SF-268 = system: SF-268
SF-295 = system: SF-295
SF-539 = system: SF-539
SK-MEL-28 = system: SK-MEL-28
SK-MEL-2 = system: SK-MEL-2
SK-MEL-5 = system: SK-MEL-5
SK-OV-3 = system: SK-OV-3
SN12C = system: SN12C
SNB-19 = system: SNB-19
SNB-75 = system: SNB-75
SR = system: SR
SW-620 = system: SW-620
T47D = system: T47D
TK-10 = system: TK-10
U-251 = system: U-251
UACC-257 = system: UACC-257
UO-31 = system: UO-31
BT-549 = system: BT-549
UACC-62 = system: UACC-62

## CCOC(=O)C(NC(C)=O)(Nc1ccc(S(N)(=O)=O)cc1)C(F)(F)F (stereo not drawn)
786-0
  GI50: > 100 µM (inactive)
A498
  GI50: > 100 µM (inactive)
A549
  GI50: > 100 µM (inactive)
ACHN
  GI50: > 100 µM (inactive)
CAKI-1
  GI50: > 100 µM (inactive)
CCRF-CEM
  GI50: > 100 µM (inactive)
COLO 205
  GI50: > 100 µM (inactive)
DU-145
  GI50: > 100 µM (inactive)
EKVX
  GI50: > 100 µM (inactive)
HCC 2998
  GI50: > 100 µM (inactive)
HCT-116
  GI50: > 100 µM (inactive)
HCT-15
  GI50: > 100 µM
HL-60
  GI50: > 100 µM (inactive)
HOP-62
  GI50: > 100 µM (inactive)
HOP-92
  GI50: > 100 µM (inactive)
HT-29
  GI50: > 100 µM (inactive)
Hs-578T
  GI50: > 100 µM (inactive)
IGROV-1
  GI50: > 100 µM (inactive)
K562
  GI50: > 100 µM (inactive)
KM12
  GI50: 3.58 µM (inactive)
LOX IMVI
  GI50: > 100 µM (inactive)
M14
  GI50: > 100 µM (inactive)
MCF7
  GI50: > 100 µM (inactive)
MDA-MB-231
  GI50: > 100 µM (inactive)
MDA-MB-435
  GI50: > 100 µM (inactive)
MDA-N
  GI50: > 100 µM (inactive)
MOLT-4
  GI50: > 100 µM (inactive)
Malme-3M
  GI50: > 100 µM (inactive)
NCI-H226
  GI50: > 100 µM (inactive)
NCI-H23
  GI50: > 100 µM (inactive)
NCI-H460
  GI50: > 100 µM (inactive)
NCI-H522
  GI50: > 100 µM (inactive)
NCI/ADR-RES
  GI50: > 100 µM (inactive)
OVCAR-3
  GI50: > 100 µM (inactive)
OVCAR-4
  GI50: > 100 µM (inactive)
OVCAR-5
  GI50: > 100 µM (inactive)
OVCAR-8
  GI50: > 100 µM (inactive)
PC-3
  GI50: > 100 µM (inactive)
RPMI-8226
  GI50: > 100 µM (inactive)
RXF 393
  GI50: > 100 µM (inactive)
SF-268
  GI50: > 100 µM (inactive)
SF-295
  GI50: > 100 µM (inactive)
SF-539
  GI50: > 100 µM (inactive)
SK-MEL-28
  GI50: > 100 µM (inactive)
SK-MEL-2
  GI50: > 100 µM (inactive)
SK-MEL-5
  GI50: > 100 µM (inactive)
SK-OV-3
  GI50: > 100 µM (inactive)
SN12C
  GI50: > 100 µM (inactive)
SNB-19
  GI50: > 100 µM (inactive)
SNB-75
  GI50: > 100 µM (inactive)
SR
  GI50: > 100 µM (inactive)
SW-620
  GI50: > 100 µM (inactive)
T47D
  GI50: > 100 µM (inactive)
TK-10
  GI50: > 100 µM (inactive)
U-251
  GI50: > 100 µM (inactive)
UACC-257
  GI50: > 100 µM (inactive)
UO-31
  GI50: > 100 µM (inactive)

## CCCCCCc1cc2cc(-c3csc(-c4ccc(OC)cc4)n3)c(=O)oc2cc1O
786-0
  GI50: 5.28 µM (inactive)
A549
  GI50: 16.7 µM (inactive)
ACHN
  GI50: 10.9 µM (inactive)
BT-549
  GI50: 2.36 µM (inactive)
CAKI-1
  GI50: 6.73 µM (inactive)
CCRF-CEM
  GI50: 22.6 µM (inactive)
COLO 205
  GI50: 51.8 µM (inactive)
DU-145
  GI50: 11.7 µM (inactive)
EKVX
  GI50: 20.2 µM (inactive)
HCC 2998
  GI50: 15.3 µM (inactive)
HCT-116
  GI50: 7.19 µM (inactive)
HCT-15
  GI50: 17.1 µM
HL-60
  GI50: 33.3 µM (inactive)
HOP-62
  GI50: 14.7 µM (inactive)
HOP-92
  GI50: 3.57 µM (inactive)
HT-29
  GI50: 96.2 µM (inactive)
Hs-578T
  GI50: 15.8 µM (inactive)
IGROV-1
  GI50: 5.45 µM (inactive)
K562
  GI50: 19.3 µM (inactive)
KM12
  GI50: 24.8 µM (inactive)
LOX IMVI
  GI50: 12.6 µM (inactive)
M14
  GI50: 12.2 µM (inactive)
MCF7
  GI50: 17.8 µM (inactive)
MDA-MB-231
  GI50: 11 µM (inactive)
MDA-MB-435
  GI50: 4.9 µM (inactive)
MOLT-4
  GI50: 24.3 µM (inactive)
NCI-H226
  GI50: 14 µM (inactive)
NCI-H460
  GI50: 12.2 µM (inactive)
OVCAR-4
  GI50: 2.48 µM (inactive)
OVCAR-5
  GI50: 26.7 µM (inactive)
PC-3
  GI50: 18.9 µM (inactive)
RPMI-8226
  GI50: 33.8 µM (inactive)
RXF 393
  GI50: 13.1 µM (inactive)
SF-268
  GI50: 4.79 µM (inactive)
SF-295
  GI50: 13.9 µM (inactive)
SF-539
  GI50: 12.8 µM (inactive)
SK-MEL-28
  GI50: 10.2 µM (inactive)
SK-MEL-2
  GI50: 15.8 µM (inactive)
SK-MEL-5
  GI50: 9.06 µM (inactive)
SK-OV-3
  GI50: 15.2 µM (inactive)
SN12C
  GI50: 10.4 µM (inactive)
SNB-19
  GI50: 9.95 µM (inactive)
SNB-75
  GI50: 14.7 µM (inactive)
SR
  GI50: 19.6 µM (inactive)
SW-620
  GI50: 6.61 µM (inactive)
T47D
  GI50: 7.82 µM (inactive)
TK-10
  GI50: 14 µM (inactive)
U-251
  GI50: 5.24 µM (inactive)
UACC-257
  GI50: 8.51 µM (inactive)
UACC-62
  GI50: 6.55 µM (inactive)
UO-31
  GI50: 6.7 µM (inactive)
